From US11858972B2, “Micropeptides and uses thereof” (FUNDACIÓ PRIVADA INSTITUT D'INVESTIGACIÓ ONCOLÒGICA DE VALL …, priority 2018, dated 2024)
*1 amine or outer side, *2 acyl side, *3 side chain or, on linkers, in order; H or OH if unused. Where a SMILES comes first, the peptide text is derived from it. Bridges are numbered along the chain shown (N, C = ends). Roman numbers before positions name the chains, in order. [ ]: non-standard residue; d: D form. Actinocin(9to1) = Cc1c2oc3c(C)ccc(C(=O)[*:1])c3nc-2c(C(=O)[*:2])c(N)c1=O; NMeV = CN[C@H](C(=O)O)C(C)C; Sar = CNCC(=O)O

What was measured:
Type in all cases: cell-based, human
[1] = system: SEQ ID NO:1 in HCT116 and A549 cells; test: SEQ ID NO:1 expression (qPCR, Western Blot) after drug treatment, wild-type p53 cells; details: cells with wild-type p53 (HCT116 and A549); Doxorubicin 1 μM, Actinomycin D 1 nM, Nutlin-3a 10 μM
Description: (§1) FIG. 10. SEQ ID NO: 1 is induced by genotoxic stress in a p53-dependent manner. HCT116, HCT116 p53KO, A549 and BxPC3 were treated with Doxorubicin (1 μM) or Actinomycin D (1 nM) and Nutlin-3a (10 μM). SEQ ID NO: 1 transcriptional levels were measured by qPCR in A549 and HCT116 (A) and in HCT116 p53KO and BxPC-3 (B). mRNA expression is shown relative to the not treated control. SEQ ID NO: 1 protein was measured by Western Blot analysis using a custom-made anti-SEQ ID NO: 1 antibody in A549 and HCT116 (A) and in HCT116 p53KO and BxPC-3 (B). (C) Immunostaining showing the upregulation of SEQ ID NO: 1 in A549 cells using a custom-made anti-SEQ ID NO: 1 antibody upon Doxorubicin treatment.
(§2) Doxorubicin, Actinomycin D and Nutlin-3a were purchased from Sigma-Aldrich. Doxorubicin was used at 1 μM, Actinomycin D was used at […] and Nutlin-3a was used at 10 μM in drug treatment experiments.
(§3) Total RNA was extracted with Trizol® and treated with TURBO™ DNase following provider's recommendations. 1 μg of RNA was retrotranscribed using iScript™ cDNA Synthesis Kit (BioRad). Gene expression was analysed by quantitative real time PCR using PowerUp SYBR Green Master Mix (Thermo Fisher Scientific) in the 7900HT Fast Real-Time PCR System (Applied Biosystems). Cycle threshold (Ct) values were normalized to GAPDH.
(§4) Cells pellets (4-5*10^6 cells) were homogenized in medium-salt lysis buffer (150 mM NaCl, 50 mM Tris pH 8, 1% NP40 and protein inhibitors cocktail). 50 μg of protein was loaded per lane in a 12% acrylamide gel and electrophoresed in Tris-Glycine SDS Running Buffer. The following antibodies were used: Anti-HA-Tag (Abcam, 1:5000), Anti-p53 (Santa Cruz, 1:1000), Anti-p21 (Thermo Fisher, 1:1000), Anti-GAPDH (Thermo Fisher, 1:5000).

[2] = system: SEQ ID NO:1 in HCT116 p53KO and BxPC-3 cells; test: SEQ ID NO:1 expression (qPCR, Western Blot) after drug treatment, p53 altered cells; details: p53 status altered: HCT116 p53KO, BxPC-3 (mutant p53); Doxorubicin 1 μM, Actinomycin D 1 nM, Nutlin-3a 10 μM
Description: as §1, §2, §3, §4

[3] = system: SEQ ID NO 3 in HCT116 p53 KO; test: SEQ ID NO: 3 mRNA levels by RT-qPCR after drug treatment in HCT116 p53 knock-out; details: Nutlin3a 10 μM 48 h, Doxorubicin 1 μM 24 h
Description: FIG. 25. […] (A) HCT116 and HCT116 p53KO cells were treated with MDM2 inhibitor Nutlin3a (10 μM) during 48 h. SEQ ID NO: 3 transcriptional levels were tested by RT-qPCR. mRNA levels are normalized to untreated control (B) HCT116 and HCT116 p53KO cells were treated with genotoxic agent Doxorubicin (1 μM) during 24 h. SEQ ID NO: 3 mRNA levels were tested by RT-qPCR. mRNA levels are presented relative to GAPDH reference gene. Bars represent average of n=3 technical replicates±SD.
as §2, §3

SEQ ID NO 3 in HCT116 = test: SEQ ID NO: 3 mRNA levels by RT-qPCR after drug treatment in HCT116; details: Nutlin3a 10 μM 48 h, Doxorubicin 1 μM 24 h
Description: FIG. 25. […] (A) HCT116 and HCT116 p53KO cells were treated with MDM2 inhibitor Nutlin3a (10 μM) during 48 h. […] SEQ ID NO: 3 mRNA levels were tested by RT-qPCR. mRNA levels are presented relative to GAPDH reference gene. Bars represent average of n=3 technical replicates±SD.
as §2, §3

Structure (SMILES) | expression of SEQ ID NO:1 (mRNA and protein levels) [1] | expression of SEQ ID NO:1 (mRNA and protein levels) [2] | SEQ ID NO 3 transcriptional levels [3] | SEQ ID NO 3 transcriptional levels (SEQ ID NO 3 in HCT116)
Cc1c2oc3c(C)ccc(C(=O)N[C@@H]4C(=O)N[C@H](C(C)C)C(=O)N5CCC[C@H]5C(=O)N(C)CC(=O)N(C)[C@@H](C(C)C)C(=O)O[C@@H]4C)c3nc-2c(C(=O)N[C@@H]2C(=O)N[C@H](C(C)C)C(=O)N3CCC[C@H]3C(=O)N(C)CC(=O)N(C)[C@@H](C(C)C)C(=O)O[C@@H]2C)c(N)c1=O [Actinomycin D] (I: T[dV]P[Sar][NMeV] / II: T[dV]P[Sar][NMeV]; ester I:1-I:C, II:1-II:C; linker I:N-II:N via Actinocin(9to1)) | transcriptional and translational upregulation | do not shown the same response | – | –
COc1cccc2c1C(=O)c1c(O)c3c(c(O)c1C2=O)C[C@@](O)(C(=O)CO)C[C@@H]3O[C@H]1C[C@H](N)[C@H](O)[C@H](C)O1 [Doxorubicin] | transcriptional and translational upregulation | do not shown the same response | upregulation was impaired | upregulated
COc1ccc(C2=N[C@@H](c3ccc(Cl)cc3)[C@@H](c3ccc(Cl)cc3)N2C(=O)N2CCNC(=O)C2)c(OC(C)C)c1 [Nutlin-3a] | transcriptional and translational upregulation | do not shown the same response | upregulation was impaired | upregulated
